Assay [1] addresses T1, Aryl hydrocarbon receptor (Homo sapiens, UniProt P35869).
T1 sequence (P35869 whole entry): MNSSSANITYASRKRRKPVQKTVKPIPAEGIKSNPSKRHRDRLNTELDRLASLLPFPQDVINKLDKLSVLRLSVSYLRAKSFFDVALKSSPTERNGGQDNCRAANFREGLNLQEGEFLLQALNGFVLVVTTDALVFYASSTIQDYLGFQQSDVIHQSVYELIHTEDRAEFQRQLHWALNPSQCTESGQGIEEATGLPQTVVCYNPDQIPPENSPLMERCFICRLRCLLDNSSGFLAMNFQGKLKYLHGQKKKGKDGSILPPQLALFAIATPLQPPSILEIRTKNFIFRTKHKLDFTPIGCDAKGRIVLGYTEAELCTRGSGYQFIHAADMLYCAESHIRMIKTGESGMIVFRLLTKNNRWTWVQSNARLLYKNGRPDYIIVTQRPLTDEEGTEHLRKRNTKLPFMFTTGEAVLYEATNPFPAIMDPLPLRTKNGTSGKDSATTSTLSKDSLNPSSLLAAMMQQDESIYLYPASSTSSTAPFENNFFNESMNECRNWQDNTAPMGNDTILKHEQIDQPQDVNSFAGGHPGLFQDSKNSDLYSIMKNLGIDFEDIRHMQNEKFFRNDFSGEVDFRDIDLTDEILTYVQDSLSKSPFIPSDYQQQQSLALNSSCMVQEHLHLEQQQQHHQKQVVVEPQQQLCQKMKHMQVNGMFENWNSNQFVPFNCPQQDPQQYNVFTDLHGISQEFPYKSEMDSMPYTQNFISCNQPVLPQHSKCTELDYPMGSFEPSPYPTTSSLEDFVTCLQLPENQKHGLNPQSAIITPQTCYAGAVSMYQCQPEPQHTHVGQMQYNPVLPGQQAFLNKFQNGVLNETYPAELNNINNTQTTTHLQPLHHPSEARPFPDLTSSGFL
As to the kind of experiment: Luminescence-based cell-based high throughput dose response assay for activators of the Aryl Hydrocarbon Receptor (AHR). [Related pubchem assays: 2796 (Primary screen (AHR activators in singlicate)), 2845 (Confirmation screen (AHR activators in triplicate)), 434939 (Counterscreen (PXR activators in triplicate)), 2804 (Summary (AHR activators))]. Format: ADME. Background: The purpose of a counterscreen is to sort out artefacts and off-target activity.

For assay [2], the target named is T2, Replicative DNA helicase DnaB (Mycobacterium tuberculosis, UniProt P9WMR3).
T2 sequence (P9WMR3 whole entry): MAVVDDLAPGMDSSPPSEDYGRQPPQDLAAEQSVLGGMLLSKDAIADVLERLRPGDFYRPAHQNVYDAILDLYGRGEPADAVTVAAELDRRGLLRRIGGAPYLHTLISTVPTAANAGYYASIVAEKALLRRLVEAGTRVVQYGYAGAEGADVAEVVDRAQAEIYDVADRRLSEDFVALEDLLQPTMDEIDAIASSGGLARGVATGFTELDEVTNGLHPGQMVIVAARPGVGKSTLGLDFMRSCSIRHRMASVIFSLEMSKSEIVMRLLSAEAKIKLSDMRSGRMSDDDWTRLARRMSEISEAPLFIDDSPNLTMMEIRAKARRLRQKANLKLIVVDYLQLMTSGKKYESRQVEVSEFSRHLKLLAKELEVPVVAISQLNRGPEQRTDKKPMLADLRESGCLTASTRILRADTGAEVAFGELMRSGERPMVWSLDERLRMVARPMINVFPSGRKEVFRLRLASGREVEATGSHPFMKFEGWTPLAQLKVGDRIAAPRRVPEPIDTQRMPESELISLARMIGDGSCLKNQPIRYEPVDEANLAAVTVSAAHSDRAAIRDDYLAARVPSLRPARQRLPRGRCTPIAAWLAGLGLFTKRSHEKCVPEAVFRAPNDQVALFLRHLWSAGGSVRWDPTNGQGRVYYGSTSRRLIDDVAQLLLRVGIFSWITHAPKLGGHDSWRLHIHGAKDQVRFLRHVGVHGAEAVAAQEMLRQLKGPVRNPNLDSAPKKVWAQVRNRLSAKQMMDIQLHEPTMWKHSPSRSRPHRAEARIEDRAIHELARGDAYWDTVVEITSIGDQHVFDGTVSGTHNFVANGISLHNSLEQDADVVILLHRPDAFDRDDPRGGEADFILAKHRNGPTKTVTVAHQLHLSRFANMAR
Put plainly: DnaB intein splicing inhibitors, dose response, biochemical, cell-free fluorescence (AID 449749). Format: functional.

The next assay addresses T3, Protein RecA (Mycobacterium tuberculosis, UniProt P9WHJ3).
T3 sequence (P9WHJ3 whole entry): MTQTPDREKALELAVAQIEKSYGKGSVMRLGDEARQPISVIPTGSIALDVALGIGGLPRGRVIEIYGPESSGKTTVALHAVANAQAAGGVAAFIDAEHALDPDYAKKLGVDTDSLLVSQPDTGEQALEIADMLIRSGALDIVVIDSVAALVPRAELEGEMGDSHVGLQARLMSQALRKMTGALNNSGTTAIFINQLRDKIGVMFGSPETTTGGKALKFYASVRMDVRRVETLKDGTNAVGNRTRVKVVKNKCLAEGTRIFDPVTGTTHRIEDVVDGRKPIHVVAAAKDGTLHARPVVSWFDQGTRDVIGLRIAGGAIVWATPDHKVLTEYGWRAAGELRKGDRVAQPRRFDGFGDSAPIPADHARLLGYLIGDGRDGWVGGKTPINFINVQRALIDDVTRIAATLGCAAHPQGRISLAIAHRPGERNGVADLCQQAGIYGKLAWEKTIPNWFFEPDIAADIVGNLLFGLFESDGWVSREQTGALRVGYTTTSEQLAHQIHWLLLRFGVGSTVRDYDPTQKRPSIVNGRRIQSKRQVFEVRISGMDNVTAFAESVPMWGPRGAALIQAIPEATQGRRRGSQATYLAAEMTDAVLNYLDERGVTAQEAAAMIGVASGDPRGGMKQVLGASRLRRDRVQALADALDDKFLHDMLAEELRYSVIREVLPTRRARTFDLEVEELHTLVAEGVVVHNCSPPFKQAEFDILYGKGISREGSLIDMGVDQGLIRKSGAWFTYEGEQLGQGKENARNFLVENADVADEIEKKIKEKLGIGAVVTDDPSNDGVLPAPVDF
Put plainly: Fluorescence Cell-Free Homogeneous Dose Retest to Identify Inhibitors of RecA-Intein Splicing Activity. [Related pubchem assays (depositor defined):AID2097, AID2223, AID489010, AID492950]. Format: functional.

The target in assay [3] is T4, Mitochondrial peptide methionine sulfoxide reductase (Bos taurus, UniProt P54149).
T4 sequence (P54149 whole entry): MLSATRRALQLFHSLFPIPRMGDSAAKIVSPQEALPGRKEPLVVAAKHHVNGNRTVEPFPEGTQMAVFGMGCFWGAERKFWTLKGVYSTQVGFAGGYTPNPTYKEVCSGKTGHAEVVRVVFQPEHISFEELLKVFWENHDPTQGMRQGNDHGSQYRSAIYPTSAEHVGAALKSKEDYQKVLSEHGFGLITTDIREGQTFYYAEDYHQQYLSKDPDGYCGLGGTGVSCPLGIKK
Put plainly: Absorbance-based biochemical high throughput dose response assay for activators of Methionine sulfoxide reductase A (MsrA). Format: functional.

Assay [4] deals with T4, Mitochondrial peptide methionine sulfoxide reductase. It is filed as functional.
Assay [5] in a line: ARNT/TACC3 interaction disruptors, potency, confirmation, biochemical, AlphaScreen, cherry-picked samples (AID 651703).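 Note: His-tagged ARNT PAS-B domain paired with GST-TACC3 E629A dimer coactivator fragment; potency of inhibitors that break up the complex and lower AlphaScreen signal.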 Format: functional, Homo sapiens. For orientation: In Alpha technology, singlet oxygen from a donor bead excites a nearby acceptor bead.
The next assay relates to Vero. As to the kind of experiment: host cell cytotoxicity of antiviral hits, dose response, cytotoxicity control for West Nile virus antiviral project, secondary assay (AID 1650). It is filed as functional. The note with it: Chlorocebus sabaeus.
In assay [6] the target is T5, Microphthalmia-associated transcription factor (Homo sapiens, UniProt O75030).
T5 sequence (O75030 whole entry): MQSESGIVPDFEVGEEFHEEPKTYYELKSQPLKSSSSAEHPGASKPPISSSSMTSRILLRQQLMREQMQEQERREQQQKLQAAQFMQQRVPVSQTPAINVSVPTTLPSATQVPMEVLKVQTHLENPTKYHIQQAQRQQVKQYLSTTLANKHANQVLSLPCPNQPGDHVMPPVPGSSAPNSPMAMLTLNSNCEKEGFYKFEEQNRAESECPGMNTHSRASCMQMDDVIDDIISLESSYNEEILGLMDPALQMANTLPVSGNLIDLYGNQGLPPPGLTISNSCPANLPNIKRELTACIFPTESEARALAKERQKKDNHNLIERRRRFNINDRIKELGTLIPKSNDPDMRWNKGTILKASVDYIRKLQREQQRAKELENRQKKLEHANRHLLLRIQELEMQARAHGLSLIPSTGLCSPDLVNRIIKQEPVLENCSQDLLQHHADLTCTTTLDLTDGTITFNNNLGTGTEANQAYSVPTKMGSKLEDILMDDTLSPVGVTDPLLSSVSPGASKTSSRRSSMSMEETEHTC
Put plainly: TRPM1 promoter luciferase signal decrease, dose response, MITF inhibitor project, cell-based, SK-MEL-5, cherry-picked, set 3 (AID 493073).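 Note: SK-MEL-5 melanoma cells with luciferase driven by the MITF target TRPM1 promoter.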 It is filed as functional.

A further assay deals with Interleukin-8 (Homo sapiens, UniProt P10145). As to the kind of experiment: Dose Response confirmation of uHTS small molecule hits for cystic fibrosis induced NFkb Inhibitors in a PAF-induced IL8 counterscreen. Particulars: read-out: IC50_Mean. It is filed as functional.
For a further assay, the target named is Paired box protein Pax-8 (Homo sapiens, UniProt Q06710). Put plainly: inhibitors of PAX8-driven TPO luciferase reporter, dose response, RMG-I cells, cherry-pick (AID 687027).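 Note: luciferase reporter driven by Pax8 target thyroperoxidase promoter measured by SteadyGlo luminescence.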 It is filed as functional, cell-based. Background: A reporter such as luciferase makes a cellular process visible.
A short description of assay [7]: PAX2 cell-based inhibition, dose response, selectivity assay for PAX8 inhibitor project, plate reader, dry powder samples (AID 743048).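 Note: HEK293 cells carrying a WT1 promoter luciferase reporter driven by expressed Pax2; potency is for inhibition of Pax2 driven reporter signal.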 It is filed as functional.
Assay [8] can be described thus: PAX5 activity inhibitors, dose response, selectivity assay for PAX8 inhibitor project, cell-based, plate reader, dry powder samples (AID 743047).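 Note: HEK293 cells carrying a Pax5 driven CD19 promoter luciferase reporter; potency of inhibitors that lower reporter luminescence.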 It is filed as functional.
Assay [9] can be described thus: IGROV1 ovarian cancer cell cytotoxicity, dose response, PAX8 inhibitor project, plate reader, dry powder samples (AID 743043). Particulars: IGROV-1. Format: functional, cell-based.
Assay [10] in a line: cytotoxicity in OVCAR4 cells, dose response, cytotoxicity control for PAX8 inhibitor project, cell-based, plate reader, dry powder, SA11 (AID 743150). Format: functional. Particulars: OVCAR-4.
Assay [11] can be described thus: cytotoxicity in COV434 cells, dose response, cytotoxicity control for PAX8 inhibitor project, cell-based, plate reader, dry powder, SA7 (AID 743145). Format: functional.
A short description of assay [12]: cytotoxicity in OV-90 ovarian cancer cells, dose response, PAX8 inhibitor project, cell-based, plate reader, dry powder, SA8 (AID 743149). It is filed as functional.
A short description of assay [13]: cytotoxicity dependent on PAX8, dose response, cell-based, plate reader, dry powder (AID 743049). It is filed as functional.

Molecules are shown by their SMILES. Active and inactive are the calls of the source. A value given as a limit tells only on which side of the number the result lay.

Chain of Interleukin-8 (P10145 whole entry): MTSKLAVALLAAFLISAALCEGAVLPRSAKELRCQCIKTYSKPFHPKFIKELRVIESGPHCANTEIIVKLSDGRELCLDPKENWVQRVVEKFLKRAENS
Chain of Paired box protein Pax-8 (Q06710 whole entry): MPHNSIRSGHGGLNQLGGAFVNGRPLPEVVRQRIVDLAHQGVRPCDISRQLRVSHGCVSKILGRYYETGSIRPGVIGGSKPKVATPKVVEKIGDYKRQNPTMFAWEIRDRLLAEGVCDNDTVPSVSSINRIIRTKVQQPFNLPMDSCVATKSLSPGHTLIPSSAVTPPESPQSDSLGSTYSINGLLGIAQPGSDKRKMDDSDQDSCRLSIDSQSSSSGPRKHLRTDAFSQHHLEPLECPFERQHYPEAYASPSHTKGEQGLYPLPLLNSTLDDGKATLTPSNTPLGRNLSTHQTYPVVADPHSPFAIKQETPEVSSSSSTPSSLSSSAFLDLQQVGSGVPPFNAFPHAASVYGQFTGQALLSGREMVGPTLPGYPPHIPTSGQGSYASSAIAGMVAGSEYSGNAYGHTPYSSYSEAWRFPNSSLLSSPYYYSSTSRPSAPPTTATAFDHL

What is called EC50 is the concentration at which the effect is half-maximal. Usually AC50 stands for the midpoint of the concentration-response curve, whichever way the signal moves. Take `O=C1/C(=N/c2ccc(O)cc2)C(Cl)=C(O)c2ccccc21`: the 50% effective concentration (EC50) in assay [1] was > 1.13 µM (active); at Protein RecA, 3.48 µM (active); in [3], > 104 µM (inactive). Also, in assay [2], the AC50 was 3.36 µM (active). Further, in assay [4], the IC50 is 155 µM (inactive).
Regarding `Cn1ccnc1-c1nc2ccccc2nc1O`, the AC50 in assay [5] was 71.9 µM (active).
The CC50 is the concentration giving 50% cytotoxicity. For the molecule `Cc1ccc(S(=O)(=O)CC(CN2CCCCC2)N2CCCCC2)cc1` (configuration not stated), the CC50 with Vero was 8.81 µM (active). Further, the AC50 is 8.1 µM (active) in [6]; 4.72 µM (active) on Paired box protein Pax-8; > 100 µM (inactive) in assay [7]; 22.9 µM (active) in assay [8]; 46.5 µM (active) in [9]; 80.7 µM (active) in assay [10]. Besides, the AC50 in assay [11] is 9.72 µM (active); in [12], 15.7 µM (active); in assay [13], 17.1 µM (active). The IC50 at Interleukin-8 is 4.55 µM (active).

Source of the values: ChEMBL document CHEMBL1201862, “PubChem BioAssay data set” (2004).
